Assay results reported in patent publication US20200385371A1 (Propellon Therapeutics Inc., priority 2017, published 2020).

How the values were obtained:
[1] = target: T1, WDR5 (Homo sapiens, UniProt P61964); assay: Fluorescence Polarization (FP) binding assay
Method: H3 (1-15) ([…]), and 9-Ala-FAM ((Ac)-[…]-(Ahx-Ahx)-K(5,6-FAM)) (where Ahx represents 6 amino hexanoic acid linkers) peptides for WDR5 were synthesized, N-terminal-labeled with isothiocyanate-fluorescein, and purified by Tufts University Core Services (Boston, Mass.). Compound binding assays were performed at a constant labeled peptide concentration of 30 or 20 nM for H3 (1-15) and 9-Ala-FAM respectively. WDR5 concentrations of 0.3 μM for H3 (1-15) and 0.05 μM for 9-Ala-FAM were used. For both the H3 (1-15) and 9-Ala-FAM peptides, 80 mM sodium phosphate buffer (pH 6.5), 20 mM KCl, and 0.008% Triton X-100 was used. For the H3 (1-15) peptide, FP assays were measured in 10 μl aliquots in 384-well Axygen plates using a Synergy 4 microplate reader (BioTek) with an excitation wavelength of 485 nm and emission wavelength of 528 nm. For the 9-Ala-FAM peptide, FP assays were measured in 125 μl aliquots in 96 well Microfluor plates using a ViewLux instrument (Perkin Elmer) with an excitation wavelength of 480 nm and emission wavelength of 540 nm. To determine Kdsp values, the data were fit to a hyperbolic function using Sigma Plot software (Systat Software). The Kdisp values represent the average of quadruplicate measurements.

[2] = system: MV4-11 cells; assay: Cell proliferation assay (ATPlite); assay type: cell-based; settings: Homo sapiens, 120 h; MV4-11 cells, five days; read-out: GI MV411 EC50
Method: MV4-11 cells were seeded into a 96-well plate at 1,000 cells/well in 150 μl medium (Alpha-MEM containing 10% FBS, 100 μg/ml Normocin, and 50 μg/ml Gentamycin, Invitrogen). A HP D300 digital dispenser was used to dose cells with DMSO or test compounds across a 10-point range of concentrations (high dose of 10 μM), and cultures were grown in a humidified 5% CO2 incubator at 37° C. After five days, plates were removed from incubator and equilibrated to room temperature. An equal volume of ATPlite assay reagent was added to each well, and samples were processed according to manufacturer's instructions (Perkin Elmer). Luminescent signal was measured using an Envision plate reader equipped with a US-Luminescence detector.

[3] = target: T1, WDR5; assay: Surface Plasmon Resonance (SPR) assay; assay type: binding; design: Full length WDR5 with an N-terminal His tag and C-terminal AviTag; His tag (N); made in house; host or cells: E. coli; settings: read-out: SPR Kd
Method: Exemplary compounds of the application were dissolved in 100% DMSO at 10 mM, assayed fresh, and then stored at −20° C. for repeat studies and other experiments. Full length WDR5 with an N-terminal His tag and C-terminal AviTag (Avidity Inc.) was expressed in E. coli with coexpression of BirA to biotin label the protein in vivo. Purification was via Ni-NTA.
SPR studies were performed using a Biacore™ T200 instrument (GE Health Sciences Inc.). Biotinylated WDR5 protein (approximately 3000RU) was stably captured to streptavidin coupled SA chips according to the manufacture's protocol (GE Health Sciences Inc.). The running buffer used was HBS-EP (20 mM Hepes pH 7.4, 150 mM NaCl, 3 mM EDTA, 0.05% P-20) plus 5% DMSO with a flow rate of 40 μl/min. For SPR analysis, 5 different concentrations of each exemplary compound of the application were sprayed into 96 or 384 well plates using an HP D300 digital dispenser. The concentration ranged from about 195 nM to about 12 nM in a two-fold series. […] Curve fitting and KD calculations were performed with the Biacore T200 Evalutation software (GE Health Sciences Inc).

| IC50 [1] [nM] | EC50 [2] [nM] | Kd [3] [nM] | SMILES |
| --- | --- | --- | --- |
| 12.5 | 22.1 | 1.98 | CC(C)[C@H]1CN(c2ncc(-c3c(F)cc(N4C[C@@H](C)N(C)[C@@H](C)C4)c(NC(=O)c4c[nH]c(=O)cc4C(F)F)c3F)cn2)CCO1 [Example 122, N-(2,4-Difluoro-3-(2-((S)-2-isopropylmorpholino)pyrimidin-5-yl)-6-((3S,5R)-3,4,5-trimethylpiperazin-1-yl)phenyl)-4-(difluoromethyl)-6-oxo-1,6-dihydropyridine-3-carboxamide] |
| 14.8 | 23.8 | 0.78 | C[C@@H]1CN(c2ncc(-c3c(F)cc(N4CCN(C)[C@@H](C)C4)c(NC(=O)c4c[nH]c(=O)cc4C(F)(F)F)c3F)cn2)C[C@H](C)O1 [Example 55, N-(3-(2-((2S,6R)-2,6-dimethylmorpholino)pyrimidin-5-yl)-6-((S)-3,4-dimethylpiperazin-1-yl)-2,4-difluorophenyl)-6-oxo-4-(trifluoromethyl)-1,6-dihydropyridine-3-carboxamide] |
| 8.92 | 10.2 | 0.55 | C[C@@H]1CN(c2ncc(-c3c(F)cc(N4C[C@@H](C)N(C)[C@@H](C)C4)c(NC(=O)c4c[nH]c(=O)cc4C(F)F)c3F)cn2)CCO1 [Example 130, N-(2,4-difluoro-3-(2-((R)-2-methylmorpholino)pyrimidin-5-yl)-6-((3S,5R)-3,4,5-trimethylpiperazin-1-yl)phenyl)-4-(difluoromethyl)-6-oxo-1,6-dihydropyridine-3-carboxamide] |
| 26.9 | 39.9 | 0.8 | C[C@H]1CN(c2cc(F)c(-c3ccc(OC4CCOCC4)nc3)c(F)c2NC(=O)c2c[nH]c(=O)cc2C(F)(F)F)CCN1C [Example 186, (S)—N-(6-(3,4-dimethylpiperazin-1-yl)-2,4-difluoro-3-(6-((tetrahydro-2H-pyran-4-yl)oxy)pyridin-3-yl)phenyl)-6-oxo-4-(trifluoromethyl)-1,6-dihydropyridine-3-carboxamide] |
| 23 | 101 | 1.72 | C[C@@H]1CN(c2ccc(-c3c(F)cc(N4CCN(C)[C@@H](C)C4)c(NC(=O)c4ccc(F)cc4C(F)F)c3F)cn2)CCO1 [Example 177, 2-(Difluoromethyl)-N-(6-((S)-3,4-dimethylpiperazin-1-yl)-2,4-difluoro-3-(6-((R)-2-methylmorpholino)pyridin-3-yl)phenyl)-4-fluorobenzamide] |
| 15.6 | 22.8 | 2.79 | C[C@H]1CN(c2cc(F)c(C3=CCN(C(=O)OC4(C)CCC4)CC3)c(F)c2NC(=O)c2c[nH]c(=O)cc2C(F)F)CCN1C [Example 92, 1-Methylcyclobutyl(S)-4-(3-(4-(difluoromethyl)-6-oxo-1,6-dihydropyridine-3-carboxamido)-4-(3,4-dimethylpiperazin-1-yl)-2,6-difluorophenyl)-3,6-dihydropyridine-1(2H)-carboxylate] |
| 26.8 | 367 | 7.63 | C[C@@H]1CN(c2nccc(-c3c(F)cc(N4CCN(C)[C@@H](C)C4)c(NC(=O)c4cn(C)c(=O)cc4C(F)F)c3F)n2)C[C@H](C)O1 [Example 57, 4-(Difluoromethyl)-N-(3-(2-((2S,6R)-2,6-dimethylmorpholino)pyrimidin-4-yl)-6-((S)-3,4-dimethylpiperazin-1-yl)-2,4-difluorophenyl)-1-methyl-6-oxo-1,6-dihydropyridine-3-carboxamide] |
| 29.4 | 409 | 6.29 | CC(C)OC(=O)N1CCC=C(c2c(F)cc(N3CCN(C)[C@@H](C)C3)c(NC(=O)c3c[nH]c(=O)cc3C(F)F)c2F)C1 [Example 35, Isopropyl (S)-5-(3-(4-(difluoromethyl)-6-oxo-1,6-dihydropyridine-3-carboxamido)-4-(3,4-dimethylpiperazin-1-yl)-2,6-difluorophenyl)-3,6-dihydropyridine-1(2H)-carboxylate] |
| 18.2 | 99.1 | 0.7 | C[C@@H]1CN(c2cc(F)c(-c3ccc4c(c3)OCCO4)c(F)c2NC(=O)c2c[nH]c(=O)cc2C(F)(F)F)C[C@H](C)N1C [Example 72, N-(3-(2,3-dihydrobenzo[b][1,4]dioxin-6-yl)-2,4-difluoro-6-((3S,5R)-3,4,5-trimethylpiperazin-1-yl)phenyl)-6-oxo-4-(trifluoromethyl)-1,6-dihydropyridine-3-carboxamide] |
| 28.8 | 693 | 3.83 | C[C@H]1CN(c2cc(F)c(C3=CCCN(c4ncccn4)C3)c(F)c2NC(=O)c2c[nH]c(=O)cc2C(F)F)CCN1C [Example 54, (S)-4-(difluoromethyl)-N-(6-(3,4-dimethylpiperazin-1-yl)-2,4-difluoro-3-(1-(pyrimidin-2-yl)-1,2,5,6-tetrahydropyridin-3-yl)phenyl)-6-oxo-1,6-dihydropyridine-3-carboxamide] |
| 13.8 | 9.38 | 0.7 | C[C@@H]1CN(c2ncc(-c3c(F)cc(N4CCN(C)[C@@H](C)C4)c(NC(=O)c4c[nH]c(=O)cc4C(F)F)c3F)cn2)C[C@@H](C)O1 [Example 115, 4-(Difluoromethyl)-N-(3-(2-((2R,6R)-2,6-dimethylmorpholino)pyrimidin-5-yl)-6-((S)-3,4-dimethylpiperazin-1-yl)-2,4-difluorophenyl)-6-oxo-1,6-dihydropyridine-3-carboxamide] |
| 14.7 | 913 | 2.95 | C[C@H]1CN(c2cc(F)c(C3=CCN(C(=O)c4csc(CN(C)C)n4)CC3)c(F)c2NC(=O)c2c[nH]c(=O)cc2C(F)F)CCN1C [Example 187, (S)-4-(difluoromethyl)-N-(3-(1-(2-((dimethylamino)methyl)thiazole-4-carbonyl)-1,2,3,6-tetrahydropyridin-4-yl)-6-(3,4-dimethylpiperazin-1-yl)-2,4-difluorophenyl)-6-oxo-1,6-dihydropyridine-3-carboxamide] |
| 15.4 | 81.2 | 1.96 | C[C@@H]1CN(c2cc(F)c(-c3cnc(N4CC5CCC(C4)O5)nc3)c(F)c2NC(=O)c2c[nH]c(=O)cc2C(F)F)C[C@H](C)N1C [Example 156, N-(3-(2-(8-oxa-3-azabicyclo[3.2.1]octan-3-yl)pyrimidin-5-yl)-2,4-difluoro-6-((3S,5R)-3,4,5-trimethylpiperazin-1-yl)phenyl)-4-(difluoromethyl)-6-oxo-1,6-dihydropyridine-3-carboxamide] |
| 10 | 59.2 | 0.33 | C[C@@H]1CN(c2cc(F)c(-c3cnc(N4CCOCC4)nc3)c(F)c2NC(=O)c2ccc(F)cc2C(F)(F)F)C[C@H](C)N1C [Example 10, N-(2,4-difluoro-3-(2-morpholinopyrimidin-5-yl)-6-((3S,5R)-3,4,5-trimethylpiperazin-1-yl)phenyl)-4-fluoro-2-(trifluoromethyl)benzamideformic acid] |
| 11.9 | 70.1 | 0.51 | C[C@H]1CN(c2cc(F)c(C3=CCN(c4ncc(C#N)s4)C3)c(F)c2NC(=O)c2c[nH]c(=O)cc2C(F)(F)F)CCN1C [Example 96, (S)—N-(3-(1-(5-cyanothiazol-2-yl)-2,5-dihydro-1H-pyrrol-3-yl)-6-(3,4-dimethylpiperazin-1-yl)-2,4-difluorophenyl)-6-oxo-4-(trifluoromethyl)-1,6-dihydropyridine-3-carboxamide] |
